Assay results reported in article PMC4774911, “Biochemical Screening of Five Protein Kinases from Plasmodium falciparum against 14,000 Cell-Active Compounds” (PLoS ONE, 2016).
Values joined by “and” are separate entries in the source; they are usually repeats but may differ in a detail not shown here. Equal entries are not always repeated.

Tests used:
Experiment in all cases: biochemical
[1] = target: FYN (Homo sapiens, UniProt P06241)
[2] = target: BMP2K (Homo sapiens, UniProt Q9NSY1)
[3] = target: PRKCQ (Homo sapiens, UniProt Q04759)
Chain of PRKCQ (Q04759 whole entry): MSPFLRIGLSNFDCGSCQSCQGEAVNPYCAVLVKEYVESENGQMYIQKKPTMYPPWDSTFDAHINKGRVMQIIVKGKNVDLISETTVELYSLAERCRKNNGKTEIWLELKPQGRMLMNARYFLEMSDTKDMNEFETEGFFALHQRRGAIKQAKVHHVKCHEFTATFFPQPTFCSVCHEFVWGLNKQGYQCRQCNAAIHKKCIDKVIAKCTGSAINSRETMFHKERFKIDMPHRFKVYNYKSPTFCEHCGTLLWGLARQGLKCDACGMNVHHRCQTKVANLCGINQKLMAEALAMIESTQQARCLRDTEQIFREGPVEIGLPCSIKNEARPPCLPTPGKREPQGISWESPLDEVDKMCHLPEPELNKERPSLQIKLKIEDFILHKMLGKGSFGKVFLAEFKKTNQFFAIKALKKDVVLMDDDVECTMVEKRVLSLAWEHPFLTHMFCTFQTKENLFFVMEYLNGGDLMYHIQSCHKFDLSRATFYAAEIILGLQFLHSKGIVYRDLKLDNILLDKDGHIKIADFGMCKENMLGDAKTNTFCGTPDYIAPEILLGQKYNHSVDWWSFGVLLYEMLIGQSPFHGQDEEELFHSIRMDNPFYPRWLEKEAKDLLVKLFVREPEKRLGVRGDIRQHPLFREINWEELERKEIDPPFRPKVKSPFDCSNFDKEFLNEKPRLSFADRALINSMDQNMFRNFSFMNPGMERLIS

[4] = target: CDC42BPG (Homo sapiens, UniProt Q6DT37); parameters: endogenous in cells; host or cells: K562 cell extract; species or system K562 (extract); replicate k of n = 2 (each experiment ID is one independent experiment; two experiment IDs per compound); settings: read-out: KDapp
Chain of CDC42BPG (Q6DT37 whole entry): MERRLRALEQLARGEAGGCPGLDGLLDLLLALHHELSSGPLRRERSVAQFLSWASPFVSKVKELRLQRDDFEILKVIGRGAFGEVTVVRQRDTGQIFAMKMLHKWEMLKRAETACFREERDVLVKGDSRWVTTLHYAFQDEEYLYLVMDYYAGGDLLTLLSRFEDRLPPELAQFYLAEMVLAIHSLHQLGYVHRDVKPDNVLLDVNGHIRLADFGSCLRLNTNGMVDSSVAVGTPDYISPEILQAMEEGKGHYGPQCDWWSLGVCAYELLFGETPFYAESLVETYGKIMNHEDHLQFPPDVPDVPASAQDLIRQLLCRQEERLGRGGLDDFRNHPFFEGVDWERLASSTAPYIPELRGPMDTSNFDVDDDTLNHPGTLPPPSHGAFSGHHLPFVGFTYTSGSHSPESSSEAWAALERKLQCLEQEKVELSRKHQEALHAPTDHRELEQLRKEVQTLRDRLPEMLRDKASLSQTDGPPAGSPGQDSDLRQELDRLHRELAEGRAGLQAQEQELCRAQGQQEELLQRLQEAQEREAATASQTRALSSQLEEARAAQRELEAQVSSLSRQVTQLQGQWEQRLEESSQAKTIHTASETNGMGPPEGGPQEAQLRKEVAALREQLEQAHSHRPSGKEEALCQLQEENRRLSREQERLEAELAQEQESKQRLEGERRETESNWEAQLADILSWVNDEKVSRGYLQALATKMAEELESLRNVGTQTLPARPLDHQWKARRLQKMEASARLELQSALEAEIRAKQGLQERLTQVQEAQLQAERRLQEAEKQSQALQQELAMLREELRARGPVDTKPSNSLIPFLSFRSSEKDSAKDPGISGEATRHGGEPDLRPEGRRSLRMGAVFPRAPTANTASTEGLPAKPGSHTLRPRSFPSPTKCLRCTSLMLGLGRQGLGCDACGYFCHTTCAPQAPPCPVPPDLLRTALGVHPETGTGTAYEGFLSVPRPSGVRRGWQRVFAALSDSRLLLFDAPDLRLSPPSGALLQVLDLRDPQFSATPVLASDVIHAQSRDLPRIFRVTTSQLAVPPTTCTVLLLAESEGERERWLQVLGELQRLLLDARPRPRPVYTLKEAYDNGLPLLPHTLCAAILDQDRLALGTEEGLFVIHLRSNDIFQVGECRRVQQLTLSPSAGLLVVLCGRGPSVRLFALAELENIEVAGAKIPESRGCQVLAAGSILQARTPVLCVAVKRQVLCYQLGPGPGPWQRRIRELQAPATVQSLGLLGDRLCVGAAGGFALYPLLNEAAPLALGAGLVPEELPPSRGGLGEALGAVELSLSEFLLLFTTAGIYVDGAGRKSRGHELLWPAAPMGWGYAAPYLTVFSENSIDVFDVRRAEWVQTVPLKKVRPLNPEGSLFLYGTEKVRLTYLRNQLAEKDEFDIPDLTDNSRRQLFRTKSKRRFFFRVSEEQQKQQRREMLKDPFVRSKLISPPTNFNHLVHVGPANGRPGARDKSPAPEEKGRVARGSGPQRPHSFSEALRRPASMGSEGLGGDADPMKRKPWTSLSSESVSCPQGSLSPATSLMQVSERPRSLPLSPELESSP

[5] = target: T1, MERTK (Homo sapiens, UniProt Q12866); parameters: endogenous in cells; host or cells: K562 cell extract; species or system K562 (extract); replicate k of n = 2 (each experiment ID is one independent experiment; two experiment IDs per compound); settings: read-out: KDapp
T1 sequence (Q12866 1-999): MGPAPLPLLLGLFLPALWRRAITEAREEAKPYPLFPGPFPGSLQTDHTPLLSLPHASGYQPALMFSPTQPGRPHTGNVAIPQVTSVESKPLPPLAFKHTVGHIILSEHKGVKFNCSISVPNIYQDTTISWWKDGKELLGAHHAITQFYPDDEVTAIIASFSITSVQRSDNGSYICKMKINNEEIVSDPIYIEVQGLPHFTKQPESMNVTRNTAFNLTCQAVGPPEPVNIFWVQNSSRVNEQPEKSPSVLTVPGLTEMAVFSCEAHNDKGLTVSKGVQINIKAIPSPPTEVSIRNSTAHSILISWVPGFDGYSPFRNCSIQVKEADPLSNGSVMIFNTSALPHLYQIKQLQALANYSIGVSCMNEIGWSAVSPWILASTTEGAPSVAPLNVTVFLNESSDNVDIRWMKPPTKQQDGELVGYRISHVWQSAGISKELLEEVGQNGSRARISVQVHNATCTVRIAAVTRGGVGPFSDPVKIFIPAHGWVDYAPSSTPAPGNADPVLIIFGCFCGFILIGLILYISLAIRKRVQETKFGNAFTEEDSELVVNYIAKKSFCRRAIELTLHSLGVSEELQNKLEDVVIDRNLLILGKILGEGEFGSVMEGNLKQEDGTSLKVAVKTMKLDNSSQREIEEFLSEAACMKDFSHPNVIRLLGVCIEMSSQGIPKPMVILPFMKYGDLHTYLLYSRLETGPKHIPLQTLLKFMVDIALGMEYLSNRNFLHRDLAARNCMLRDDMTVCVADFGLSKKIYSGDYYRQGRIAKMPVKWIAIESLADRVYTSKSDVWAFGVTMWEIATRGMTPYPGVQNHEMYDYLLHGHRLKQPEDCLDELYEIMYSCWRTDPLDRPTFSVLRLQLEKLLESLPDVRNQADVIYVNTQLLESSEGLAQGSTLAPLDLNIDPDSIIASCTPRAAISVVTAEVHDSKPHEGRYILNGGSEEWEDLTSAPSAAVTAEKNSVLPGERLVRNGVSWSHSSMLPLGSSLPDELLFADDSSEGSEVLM

[6] = target: GSK3B (Homo sapiens, UniProt P49841); parameters: endogenous in cells; host or cells: K562 cell extract; species or system K562 (extract); replicate k of n = 2 (each experiment ID is one independent experiment; two experiment IDs per compound); settings: read-out: KDapp
Chain of GSK3B (P49841 whole entry): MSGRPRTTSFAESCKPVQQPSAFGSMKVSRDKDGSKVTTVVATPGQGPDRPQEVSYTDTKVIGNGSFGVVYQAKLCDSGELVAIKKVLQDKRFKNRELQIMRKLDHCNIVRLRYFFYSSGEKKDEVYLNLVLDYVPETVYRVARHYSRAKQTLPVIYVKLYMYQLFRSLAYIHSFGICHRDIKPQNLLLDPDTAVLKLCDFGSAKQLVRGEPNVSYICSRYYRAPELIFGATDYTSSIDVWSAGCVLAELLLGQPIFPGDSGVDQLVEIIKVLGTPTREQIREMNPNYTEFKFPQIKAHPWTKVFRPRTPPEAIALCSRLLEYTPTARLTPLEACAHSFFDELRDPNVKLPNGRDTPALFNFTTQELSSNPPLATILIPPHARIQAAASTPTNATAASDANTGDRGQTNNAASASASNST

[7] = target: T2, PRKD2 (Homo sapiens, UniProt Q9BZL6); parameters: endogenous in cells; host or cells: K562 cell extract; species or system K562 (extract); replicate k of n = 2 (each experiment ID is one independent experiment; two experiment IDs per compound); settings: read-out: KDapp
T2 sequence (Q9BZL6 1-878): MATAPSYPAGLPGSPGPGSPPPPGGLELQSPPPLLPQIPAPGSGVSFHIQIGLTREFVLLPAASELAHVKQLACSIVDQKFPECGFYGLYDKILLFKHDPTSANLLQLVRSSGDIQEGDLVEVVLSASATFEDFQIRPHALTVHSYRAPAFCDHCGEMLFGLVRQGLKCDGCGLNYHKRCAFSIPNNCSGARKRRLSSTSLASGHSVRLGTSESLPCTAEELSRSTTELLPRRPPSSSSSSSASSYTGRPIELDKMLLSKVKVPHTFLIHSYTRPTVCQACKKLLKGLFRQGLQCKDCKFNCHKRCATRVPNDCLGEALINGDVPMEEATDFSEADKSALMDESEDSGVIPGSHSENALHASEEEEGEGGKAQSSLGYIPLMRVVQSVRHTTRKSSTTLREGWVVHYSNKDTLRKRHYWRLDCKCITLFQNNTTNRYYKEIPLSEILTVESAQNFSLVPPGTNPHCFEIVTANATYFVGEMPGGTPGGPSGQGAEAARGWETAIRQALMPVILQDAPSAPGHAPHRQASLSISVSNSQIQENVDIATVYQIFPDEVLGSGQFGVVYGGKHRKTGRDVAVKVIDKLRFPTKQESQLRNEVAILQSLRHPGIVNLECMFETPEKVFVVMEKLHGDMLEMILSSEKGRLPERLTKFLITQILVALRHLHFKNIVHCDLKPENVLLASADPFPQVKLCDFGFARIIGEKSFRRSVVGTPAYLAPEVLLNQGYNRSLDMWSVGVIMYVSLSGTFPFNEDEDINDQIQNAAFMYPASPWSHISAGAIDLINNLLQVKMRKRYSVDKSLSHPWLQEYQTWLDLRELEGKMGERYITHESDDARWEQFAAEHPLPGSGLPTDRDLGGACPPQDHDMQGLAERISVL

Chain of BMP2K (Q9NSY1 whole entry): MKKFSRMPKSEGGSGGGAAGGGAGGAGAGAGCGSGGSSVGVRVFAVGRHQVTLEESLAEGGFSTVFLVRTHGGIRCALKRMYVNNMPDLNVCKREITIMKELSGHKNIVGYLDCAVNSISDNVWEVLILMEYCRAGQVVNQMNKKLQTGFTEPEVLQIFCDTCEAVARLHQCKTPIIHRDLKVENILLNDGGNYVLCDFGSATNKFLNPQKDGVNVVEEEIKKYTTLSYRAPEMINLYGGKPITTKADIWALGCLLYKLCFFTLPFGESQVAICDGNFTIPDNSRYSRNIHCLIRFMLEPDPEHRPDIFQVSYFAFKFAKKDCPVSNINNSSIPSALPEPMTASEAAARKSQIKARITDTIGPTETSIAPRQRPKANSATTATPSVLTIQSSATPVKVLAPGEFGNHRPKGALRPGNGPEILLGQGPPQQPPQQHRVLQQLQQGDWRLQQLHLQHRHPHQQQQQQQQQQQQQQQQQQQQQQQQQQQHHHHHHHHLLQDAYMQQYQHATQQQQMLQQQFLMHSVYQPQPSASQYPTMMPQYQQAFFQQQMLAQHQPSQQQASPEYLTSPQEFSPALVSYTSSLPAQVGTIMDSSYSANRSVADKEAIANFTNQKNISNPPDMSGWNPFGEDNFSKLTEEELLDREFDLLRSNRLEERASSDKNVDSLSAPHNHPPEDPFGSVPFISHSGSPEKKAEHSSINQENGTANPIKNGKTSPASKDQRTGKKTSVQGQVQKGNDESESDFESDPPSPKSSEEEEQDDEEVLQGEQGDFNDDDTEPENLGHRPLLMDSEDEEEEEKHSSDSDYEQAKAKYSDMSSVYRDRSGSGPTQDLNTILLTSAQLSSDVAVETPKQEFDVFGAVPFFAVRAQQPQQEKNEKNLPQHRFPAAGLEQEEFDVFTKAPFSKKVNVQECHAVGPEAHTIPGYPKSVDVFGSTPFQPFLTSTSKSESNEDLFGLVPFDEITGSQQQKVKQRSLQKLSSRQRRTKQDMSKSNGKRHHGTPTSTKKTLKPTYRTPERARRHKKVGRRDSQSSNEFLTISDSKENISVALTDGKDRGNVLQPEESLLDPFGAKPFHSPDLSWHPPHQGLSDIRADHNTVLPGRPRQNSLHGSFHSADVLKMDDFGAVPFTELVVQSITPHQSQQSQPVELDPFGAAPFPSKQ
Chain of FYN (P06241 whole entry): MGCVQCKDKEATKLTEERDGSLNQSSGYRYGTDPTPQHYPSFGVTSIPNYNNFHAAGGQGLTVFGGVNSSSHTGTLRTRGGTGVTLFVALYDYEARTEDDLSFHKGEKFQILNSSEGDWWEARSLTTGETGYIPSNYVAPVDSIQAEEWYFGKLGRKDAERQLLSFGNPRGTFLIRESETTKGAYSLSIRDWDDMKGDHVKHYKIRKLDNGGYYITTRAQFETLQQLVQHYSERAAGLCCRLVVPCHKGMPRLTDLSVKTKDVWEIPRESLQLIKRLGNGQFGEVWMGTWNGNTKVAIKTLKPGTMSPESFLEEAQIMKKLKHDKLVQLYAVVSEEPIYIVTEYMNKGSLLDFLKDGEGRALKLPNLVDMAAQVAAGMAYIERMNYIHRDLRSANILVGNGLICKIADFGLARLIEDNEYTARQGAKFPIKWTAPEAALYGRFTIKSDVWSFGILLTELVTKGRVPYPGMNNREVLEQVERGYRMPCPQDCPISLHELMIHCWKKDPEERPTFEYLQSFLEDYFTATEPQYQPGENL

| Compound | IC50 [1] | IC50 [2] | IC50 [3] | Kd [4] [µM] | Kd [5] [µM] | Kd [6] | Kd [7] |
| --- | --- | --- | --- | --- | --- | --- | --- |
| CN1CCN(c2ccc(Nc3ncc(C#N)c(Nc4ccccc4C(N)=O)n3)cc2)CC1.Cl [TCMDC-134116] | 0.3 µM and 0.24 µM | 0.35 µM and 0.29 µM | 1.2 µM and 0.91 µM | 0.848 | 0.325 | 0.857 µM and 0.535 µM | 0.165 µM and 0.16 µM |
| Cl.NCC1(c2nc(-c3ccc(Cl)c(O)c3)c(-c3ccncc3)[nH]2)CCCCC1 [TCMDC-141154] | 0.19 µM and 0.17 µM | > 20 µM | 1.1 µM and 1.4 µM | 6.79 | 4.8 | 2.75 µM | 2.52 µM and 2.08 µM |
| CN(C)CC(O)COc1ccc(Nc2ncc([N+](=O)[O-])c(Nc3ccccc3O)n2)cc1.O=C(O)C(F)(F)F (stereo not drawn) [TCMDC-141399] | > 20 µM | > 20 µM | > 20 µM | 8.14 | 0.567 | 3 µM and 3.93 µM | 0.921 µM |
